Usually AC50 stands for the concentration giving half of the maximal activity seen. A lower AC50 goes with activity at low concentration.

The text below walks through data of ChEMBL document CHEMBL5291721, “A preclinical secondary pharmacology resource illuminates target-adverse drug reaction associations of marketed drugs” (Nat Commun, 2023).

One assay addresses T1, Glucocorticoid receptor (Homo sapiens, UniProt P04150).
T1 sequence (P04150 whole entry): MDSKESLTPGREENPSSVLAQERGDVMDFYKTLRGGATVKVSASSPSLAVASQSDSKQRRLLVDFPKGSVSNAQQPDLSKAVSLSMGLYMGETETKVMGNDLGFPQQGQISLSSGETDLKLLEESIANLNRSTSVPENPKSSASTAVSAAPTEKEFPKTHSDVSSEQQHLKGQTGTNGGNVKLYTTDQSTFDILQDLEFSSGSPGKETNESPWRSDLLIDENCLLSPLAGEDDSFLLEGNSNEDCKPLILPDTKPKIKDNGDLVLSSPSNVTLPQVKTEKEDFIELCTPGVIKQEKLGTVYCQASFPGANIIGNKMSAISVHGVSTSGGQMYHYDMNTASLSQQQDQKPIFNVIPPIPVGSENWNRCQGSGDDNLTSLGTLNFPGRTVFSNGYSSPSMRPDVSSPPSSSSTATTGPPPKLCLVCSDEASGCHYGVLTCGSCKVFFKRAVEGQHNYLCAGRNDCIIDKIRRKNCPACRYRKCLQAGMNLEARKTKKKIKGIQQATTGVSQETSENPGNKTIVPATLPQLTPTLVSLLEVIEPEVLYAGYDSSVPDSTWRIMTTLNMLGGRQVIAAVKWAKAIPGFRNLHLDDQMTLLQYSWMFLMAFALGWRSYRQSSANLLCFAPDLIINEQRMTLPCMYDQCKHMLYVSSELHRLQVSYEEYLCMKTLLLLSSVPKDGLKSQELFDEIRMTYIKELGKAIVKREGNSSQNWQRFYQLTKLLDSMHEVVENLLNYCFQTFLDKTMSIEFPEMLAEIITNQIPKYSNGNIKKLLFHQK

For the next assay, the target named is Adenosine receptor A2a (Homo sapiens, UniProt P29274).
Sequence of Adenosine receptor A2a (P29274 whole entry): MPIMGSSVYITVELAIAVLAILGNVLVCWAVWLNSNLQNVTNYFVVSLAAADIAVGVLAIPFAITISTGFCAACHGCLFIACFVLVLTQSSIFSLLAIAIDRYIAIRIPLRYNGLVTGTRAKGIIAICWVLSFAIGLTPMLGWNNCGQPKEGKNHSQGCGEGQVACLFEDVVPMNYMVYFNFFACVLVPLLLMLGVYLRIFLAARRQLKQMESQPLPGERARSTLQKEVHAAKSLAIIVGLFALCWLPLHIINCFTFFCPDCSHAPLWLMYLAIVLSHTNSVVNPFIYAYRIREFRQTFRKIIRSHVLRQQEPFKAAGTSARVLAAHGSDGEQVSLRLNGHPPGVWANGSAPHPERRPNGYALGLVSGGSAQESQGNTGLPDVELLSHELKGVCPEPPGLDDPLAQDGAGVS
In assay [1] the target is T2, Muscarinic acetylcholine receptor M2 (Homo sapiens, UniProt P08172).
T2 sequence (P08172 whole entry): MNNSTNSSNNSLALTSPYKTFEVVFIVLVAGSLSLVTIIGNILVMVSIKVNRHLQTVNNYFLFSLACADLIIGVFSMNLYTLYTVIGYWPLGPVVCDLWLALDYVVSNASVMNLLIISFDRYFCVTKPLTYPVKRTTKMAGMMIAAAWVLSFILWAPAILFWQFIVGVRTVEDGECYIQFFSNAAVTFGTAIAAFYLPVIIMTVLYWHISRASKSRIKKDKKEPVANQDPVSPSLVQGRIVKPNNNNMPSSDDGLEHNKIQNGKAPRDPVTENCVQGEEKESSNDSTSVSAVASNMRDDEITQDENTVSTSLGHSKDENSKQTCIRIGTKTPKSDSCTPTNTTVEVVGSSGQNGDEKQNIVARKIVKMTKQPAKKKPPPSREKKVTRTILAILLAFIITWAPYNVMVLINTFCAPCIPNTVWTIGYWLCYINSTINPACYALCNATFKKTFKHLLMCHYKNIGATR
The format is functional, cell-based.

The target of assay [2] is Glutamate receptor ionotropic, NMDA 1 (Rattus norvegicus, UniProt P35439).
Assay [3] addresses Gamma-aminobutyric acid receptor subunit alpha-1 (Rattus norvegicus, UniProt P62813).
Assay [4] deals with T3, Prostaglandin G/H synthase 1 (Rattus norvegicus, UniProt Q63921).
T3 sequence (Q63921 whole entry): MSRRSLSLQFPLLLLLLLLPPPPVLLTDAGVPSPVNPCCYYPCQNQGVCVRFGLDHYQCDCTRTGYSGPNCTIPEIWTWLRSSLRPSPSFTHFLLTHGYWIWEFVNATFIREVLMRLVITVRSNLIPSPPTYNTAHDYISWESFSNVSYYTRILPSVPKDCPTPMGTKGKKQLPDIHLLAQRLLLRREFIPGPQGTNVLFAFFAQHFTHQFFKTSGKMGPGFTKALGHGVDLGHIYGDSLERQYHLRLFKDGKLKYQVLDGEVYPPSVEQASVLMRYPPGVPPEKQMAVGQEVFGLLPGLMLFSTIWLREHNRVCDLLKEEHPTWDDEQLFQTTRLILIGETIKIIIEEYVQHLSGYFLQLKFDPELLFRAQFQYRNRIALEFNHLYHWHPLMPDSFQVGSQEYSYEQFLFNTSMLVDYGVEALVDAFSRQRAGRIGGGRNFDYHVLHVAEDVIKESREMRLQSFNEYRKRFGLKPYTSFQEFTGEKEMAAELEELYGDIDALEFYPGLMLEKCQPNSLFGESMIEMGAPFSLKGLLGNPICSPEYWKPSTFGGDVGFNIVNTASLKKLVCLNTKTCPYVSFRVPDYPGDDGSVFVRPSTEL
Format: functional.

For the next assay, the target named is Mu-type opioid receptor (Homo sapiens, UniProt P35372). Kind of assay: biochemical. The format is functional.
Sequence of Mu-type opioid receptor (P35372 whole entry): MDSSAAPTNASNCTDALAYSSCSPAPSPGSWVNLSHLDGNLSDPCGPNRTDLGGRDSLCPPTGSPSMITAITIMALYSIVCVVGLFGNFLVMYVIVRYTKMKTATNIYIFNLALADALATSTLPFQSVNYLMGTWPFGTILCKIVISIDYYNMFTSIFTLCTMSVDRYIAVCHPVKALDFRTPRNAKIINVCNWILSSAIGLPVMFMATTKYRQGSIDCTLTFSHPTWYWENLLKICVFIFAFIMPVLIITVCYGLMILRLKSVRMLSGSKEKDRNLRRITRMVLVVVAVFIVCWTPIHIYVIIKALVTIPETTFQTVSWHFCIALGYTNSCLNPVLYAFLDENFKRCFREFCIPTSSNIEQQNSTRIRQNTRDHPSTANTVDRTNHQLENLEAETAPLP
Assay [5] has as its target Growth hormone secretagogue receptor type 1 (Homo sapiens, UniProt Q92847).
The target of assay [6] is T4, Alpha-1A adrenergic receptor (Homo sapiens, UniProt P35348).
T4 sequence (P35348 whole entry): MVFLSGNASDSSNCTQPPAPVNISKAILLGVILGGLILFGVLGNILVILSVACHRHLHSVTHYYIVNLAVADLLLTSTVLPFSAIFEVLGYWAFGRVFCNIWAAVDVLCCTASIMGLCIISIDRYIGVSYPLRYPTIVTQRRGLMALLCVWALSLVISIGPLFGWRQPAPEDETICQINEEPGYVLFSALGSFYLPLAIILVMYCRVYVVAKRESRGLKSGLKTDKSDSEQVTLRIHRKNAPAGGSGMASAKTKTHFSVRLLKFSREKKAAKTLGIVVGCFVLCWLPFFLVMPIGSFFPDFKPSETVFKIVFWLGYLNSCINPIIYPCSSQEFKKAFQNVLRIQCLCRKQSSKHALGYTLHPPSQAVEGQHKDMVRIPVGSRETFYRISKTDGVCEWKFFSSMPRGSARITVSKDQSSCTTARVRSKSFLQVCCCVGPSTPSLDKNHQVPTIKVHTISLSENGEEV
Format: functional, cell-based.

The next assay concerns the target Cannabinoid receptor 1 (Homo sapiens, UniProt P21554). Format: functional, cell-based.
Also: assay procedure not described here.

Sequence of Growth hormone secretagogue receptor type 1 (Q92847 whole entry): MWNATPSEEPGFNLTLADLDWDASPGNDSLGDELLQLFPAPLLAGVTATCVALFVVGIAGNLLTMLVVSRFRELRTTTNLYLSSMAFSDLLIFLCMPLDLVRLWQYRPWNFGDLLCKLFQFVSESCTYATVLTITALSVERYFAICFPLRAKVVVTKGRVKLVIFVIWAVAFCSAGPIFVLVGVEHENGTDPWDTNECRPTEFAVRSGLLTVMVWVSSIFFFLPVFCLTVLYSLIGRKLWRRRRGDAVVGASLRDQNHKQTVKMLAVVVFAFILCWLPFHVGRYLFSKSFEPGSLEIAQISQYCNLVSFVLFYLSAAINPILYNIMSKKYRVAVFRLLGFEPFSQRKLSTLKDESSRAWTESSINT
Sequence of Gamma-aminobutyric acid receptor subunit alpha-1 (P62813 whole entry): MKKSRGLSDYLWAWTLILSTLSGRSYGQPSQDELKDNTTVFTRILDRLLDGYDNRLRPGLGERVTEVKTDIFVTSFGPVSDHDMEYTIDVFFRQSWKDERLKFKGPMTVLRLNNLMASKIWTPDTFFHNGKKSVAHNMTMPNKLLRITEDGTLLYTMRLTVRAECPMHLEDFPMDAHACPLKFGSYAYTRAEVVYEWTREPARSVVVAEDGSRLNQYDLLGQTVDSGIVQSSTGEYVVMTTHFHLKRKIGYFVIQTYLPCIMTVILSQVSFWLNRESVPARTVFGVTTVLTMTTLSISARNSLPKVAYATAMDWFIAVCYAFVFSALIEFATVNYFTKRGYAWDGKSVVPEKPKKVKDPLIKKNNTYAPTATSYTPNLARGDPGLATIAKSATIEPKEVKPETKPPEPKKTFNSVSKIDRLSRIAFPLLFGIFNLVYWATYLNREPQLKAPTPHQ
Sequence of Cannabinoid receptor 1 (P21554 whole entry): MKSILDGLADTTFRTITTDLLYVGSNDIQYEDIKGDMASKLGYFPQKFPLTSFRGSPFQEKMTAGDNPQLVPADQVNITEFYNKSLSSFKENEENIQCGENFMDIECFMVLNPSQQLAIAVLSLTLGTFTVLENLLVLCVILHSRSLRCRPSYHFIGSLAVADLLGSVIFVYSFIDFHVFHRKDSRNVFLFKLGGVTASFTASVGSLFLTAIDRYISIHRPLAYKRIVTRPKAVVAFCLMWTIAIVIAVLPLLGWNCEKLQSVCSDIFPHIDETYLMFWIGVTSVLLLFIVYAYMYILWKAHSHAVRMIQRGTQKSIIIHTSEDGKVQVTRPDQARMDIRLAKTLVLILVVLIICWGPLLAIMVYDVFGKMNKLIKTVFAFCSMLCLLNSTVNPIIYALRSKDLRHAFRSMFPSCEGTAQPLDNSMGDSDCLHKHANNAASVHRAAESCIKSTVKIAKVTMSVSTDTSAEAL

For `COc1ccc(/C=C/C(=O)Nc2ccccc2C(=O)O)cc1OC`, the AC50 at Glucocorticoid receptor was greater than 30 µM; on Adenosine receptor A2a, greater than 30 µM; in assay [1] it was greater than 30 µM; in [2] it was greater than 30 µM; in assay [3] it was greater than 30 µM; in [4], 7.4 µM. Also, the AC50 (on Mu-type opioid receptor; in assay [5]) was greater than 30 µM throughout.
On to `CCC(=O)OCC(=O)[C@@]1(OC(=O)CC)[C@@H](C)C[C@H]2[C@@H]3CCC4=CC(=O)C=C[C@]4(C)[C@@]3(F)[C@@H](O)C[C@@]21C` [BETAMETHASONE DIPROPIONATE], for which the AC50 on Adenosine receptor A2a was greater than 30 µM; in assay [1], greater than 30 µM; in assay [2] it was greater than 30 µM; in [3] it was greater than 30 µM; in [4] it was greater than 10 µM; in assay [6] it was greater than 30 µM. Also, the AC50 (at Cannabinoid receptor 1; on Mu-type opioid receptor; in [5]) was greater than 30 µM each time.
`CCOC(=O)NNc1ccc(N(CC)CC(C)O)nn1` (stereo unspecified) [CADRALAZINE]: the AC50 on Adenosine receptor A2a was greater than 30 µM; in assay [1] it was greater than 30 µM; in assay [2], greater than 30 µM; in [3], greater than 30 µM; in [4], 0.5 µM; in assay [6] it was greater than 30 µM. Also, the AC50 (on Cannabinoid receptor 1; on Mu-type opioid receptor; in assay [5]) was greater than 30 µM throughout.
For `CCCCCCNC(=O)n1cc(F)c(=O)[nH]c1=O` [CARMOFUR], the AC50 (at Glucocorticoid receptor; at Adenosine receptor A2a; in [1]; in assay [2]; in assay [3]; in assay [4]) was greater than 30 µM in each case. Also, the AC50 (on Mu-type opioid receptor; in assay [5]) was greater than 30 µM in each case.
With `CO[C@@]1(NC(=O)Cc2cccs2)C(=O)N2C(C(=O)O)=C(COC(N)=O)CS[C@@H]21` [CEFOXITIN], the AC50 on Adenosine receptor A2a is greater than 30 µM; in assay [1], greater than 30 µM; in assay [2], greater than 30 µM; in [3] it was greater than 10 µM; in assay [4] it was greater than 30 µM; in assay [6], greater than 30 µM. Besides, the AC50 (at Cannabinoid receptor 1; at Mu-type opioid receptor; in [5]) was greater than 30 µM throughout.
For `CC(C)(C)NCC(O)c1cc(Cl)c(N)c(Cl)c1` (stereo unspecified) [CLENBUTEROL], the AC50 (at Adenosine receptor A2a; in [1]; in assay [2]; in assay [3]; in assay [4]; in assay [6]) was greater than 30 µM each time. The AC50 (at Cannabinoid receptor 1; on Mu-type opioid receptor; in assay [5]) was greater than 30 µM each time.
Regarding `COc1cccc2c1C(=O)c1c(O)c3c(c(O)c1C2=O)C[C@@](O)(C(C)=O)C[C@@H]3O[C@H]1C[C@H](N)[C@H](O)[C@H](C)O1` [DAUNORUBICIN], the AC50 was 0.11 µM at Glucocorticoid receptor; 30 µM on Adenosine receptor A2a; greater than 30 µM in [2]; greater than 30 µM in assay [3]; greater than 30 µM in assay [4]; greater than 30 µM at Mu-type opioid receptor. The compound further displayed an AC50 in [5] of 5.17 µM.
`CC(C)c1cc2c(cc1S(=O)(=O)O)[C@@]1(C)CCC[C@@](C)(C(=O)O)[C@@H]1CC2` [ECABET]: the AC50 (on Adenosine receptor A2a; in assay [1]; in assay [2]; in [3]; in assay [4]; in assay [6]) was greater than 30 µM in each case. The AC50 (at Cannabinoid receptor 1; at Mu-type opioid receptor; in assay [5]) was greater than 30 µM in each case.
With `COC(=O)N[C@@H](C)CNc1nccc(-c2cn(C(C)C)nc2-c2cc(Cl)cc(NS(C)(=O)=O)c2F)n1` [ENCORAFENIB], the AC50 (on Glucocorticoid receptor; at Adenosine receptor A2a; in assay [1]; in [2]; in assay [3]; in [4]) was greater than 30 µM each time. Moreover, the AC50 (on Mu-type opioid receptor; in [5]) was greater than 30 µM each time.
Take `CN(c1nccc(=O)[nH]1)C1CCN(c2nc3ccccc3n2Cc2ccc(F)cc2)CC1` [MIZOLASTINE]: the AC50 (on Adenosine receptor A2a; in assay [1]; in assay [2]; in assay [3]; in assay [4]; in [6]) was greater than 30 µM each time. In addition, the AC50 (on Cannabinoid receptor 1; on Mu-type opioid receptor; in [5]) was greater than 30 µM in each case.
For the compound `CC(=O)O[C@H]1C[C@@H]2CC[C@@H]3[C@H](CC[C@@]4(C)[C@H]3C[C@H]([N+]3(C)CCCCC3)[C@@H]4OC(C)=O)[C@@]2(C)C[C@@H]1[N+]1(C)CCCCC1` [PANCURONIUM], the AC50 (on Glucocorticoid receptor; on Adenosine receptor A2a; in assay [1]; in assay [2]; in assay [3]; in assay [4]) was greater than 10 µM in each case. Moreover, the AC50 at Mu-type opioid receptor was greater than 30 µM; in assay [5], greater than 10 µM.
With `Cc1ccc(=O)n(-c2ccccc2)c1` [PIRFENIDONE], the AC50 (on Adenosine receptor A2a; in [1]; in assay [2]; in assay [3]; in assay [4]; in assay [6]) was greater than 30 µM each time. In addition, the AC50 (at Cannabinoid receptor 1; at Mu-type opioid receptor; in assay [5]) was greater than 30 µM throughout.
Regarding `COc1c(O[C@@H]2O[C@H](CO)[C@@H](O)[C@H](O)[C@H]2O)cc2c(c1OC)-c1ccc(SC)c(=O)cc1[C@@H](NC(C)=O)CC2` [THIOCOLCHICOSIDE], the AC50 at Adenosine receptor A2a was greater than 30 µM; in assay [1] it was greater than 30 µM; in assay [2], greater than 30 µM; in [3], 6.2 µM; in assay [4] it was greater than 30 µM; in [6], greater than 30 µM. Moreover, the AC50 (at Cannabinoid receptor 1; on Mu-type opioid receptor; in assay [5]) was greater than 30 µM each time.
